Measurements reported in patent publication US10919858B2, “Thioacetate compounds, compositions and methods of use” (ARDEA BIOSCIENCES, INC., priority 2010, dated 2021).

Target: URAT1 (Homo sapiens (Human), UniProt Q96S37)
Assay: URAT1-model assay, 14C-uric acid transport in HEK293/URAT1-model cells
Type: cell-based
Details: 14C-uric acid 125 μM, 10 minutes at room temperature, read-out: URAT1 EC50 Activity Ranking
Procedure: HEK293 human embryonic kidney cells (ATCC #CRL-1573) were propagated in EMEM tissue culture medium as described by ATCC in an atmosphere of 5% C02 and 95% air. Transfections of HEK293 cells with a model URAT1 construct was performed using L2000 transfection reagent (Invitrogen) as described by the manufacturer. After 24 h the transfected cells were split into 10 cm tissue culture plates and grown for 1 day after which the medium was replaced with fresh growth medium containing G418 (Gibco) at 0.5 mg/ml final concentration. Drug-resistant colonies were selected after approximately 8 days and then tested for ^14C-uric acid transport activity. The HEK293/URAT1-model cells are plated on Poly-D-Lysine Coated 96-well Plates at a density of 125,000 cells per well.
Cells were grown overnight (20-26 hours) at 37° C. in an incubator. Plates were allowed to come to room temperature and media was washed out with one wash of 250 μl of Wash Buffer (125 mM Na Gluconate, 10 mM Hepes ph 7.3). Compound or vehicle is added in assay buffer with ^14C-uric acid for a final concentration of 125 μM Uric Acid with a specific activity of 54 mCi/mmol. Assay Buffer is 125 mM Sodium Gluconate, 4.8 mM Potassium Gluconate, 1.2 mM Potassium phosphate, monobasic, 1.2 mM magnesium sulfate, 1.3 mM Ca Gluconate, 5.6 mM Glucose, 25 mM HEPES, pH 7.3. Plates were incubated at room temperature for 10 minutes then washed 3 times with 50 μl Wash Buffer and 3 times with 250 μl Wash Buffer. Microscint 20 Scintillation Fluid was added and plates were incubated overnight at room temperature to equilibrate. Plates are then read on the TopCount Plate Reader and an EC50 value generated. (See Enomoto et al, Nature, 2002, 417, 447-451 and Anzai et al, J. Biol. Chem., 2004, 279, 45942-45950.)

Chain of URAT1 (Q96S37 whole entry, species assumed): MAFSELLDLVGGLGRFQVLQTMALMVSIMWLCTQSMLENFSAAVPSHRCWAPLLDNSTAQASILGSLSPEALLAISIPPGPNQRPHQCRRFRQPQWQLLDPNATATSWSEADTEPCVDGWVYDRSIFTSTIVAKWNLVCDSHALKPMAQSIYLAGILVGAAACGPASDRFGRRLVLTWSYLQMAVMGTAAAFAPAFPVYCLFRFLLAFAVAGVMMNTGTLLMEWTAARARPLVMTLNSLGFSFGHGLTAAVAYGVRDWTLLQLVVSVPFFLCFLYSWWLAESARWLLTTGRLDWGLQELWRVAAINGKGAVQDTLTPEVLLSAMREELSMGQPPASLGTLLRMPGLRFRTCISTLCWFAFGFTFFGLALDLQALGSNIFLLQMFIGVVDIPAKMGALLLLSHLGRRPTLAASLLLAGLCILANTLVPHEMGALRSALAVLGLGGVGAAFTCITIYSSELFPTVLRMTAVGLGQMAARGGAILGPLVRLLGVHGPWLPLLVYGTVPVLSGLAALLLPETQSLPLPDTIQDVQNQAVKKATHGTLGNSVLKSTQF

CC(C)(Sc1cccnc1-c1ccc(C#N)cc1)C(=O)O [Example 1A, 2-(2-(4-Cyanophenyl)pyridin-3-ylthio)-2-methylpropanoic acid]
EC50: 50 to 500 nM

CC(C)(Sc1ccncc1-c1ccc(C#N)cc1)C(=O)O [Example 2A, 2-(3-(4-Cyanophenyl)pyridin-4-ylthio)-2-methylpropanoic acid]
EC50: 1 to 50 nM

CC(C)(Sc1ccncc1-c1ccc(O)cc1)C(=O)O [Example 2AAA]
EC50: 1 to 50 nM

CC(C)(Sc1ccncc1-c1ccc(Br)c2ccccc12)C(=O)O [Example 2AA]
EC50: 50 to 500 nM

CC(C)(Sc1ccncc1-c1ccc(C#N)c(F)c1)C(=O)O [Example 2BBB]
EC50: 50 to 500 nM

Cc1ccc(-c2cnccc2SC(C)(C)C(=O)O)c2ccccc12 [Example 2BB]
EC50: 50 to 500 nM

Cc1ccc(-c2cnccc2SC(C)(C)C(=O)O)cc1 [Example 2CCC]
EC50: 50 to 500 nM

CC(C)(Sc1ccncc1-c1ccc(S(N)(=O)=O)cc1)C(=O)O [Example 2CC]
EC50: 50 to 500 nM

CC(C)(Sc1ccncc1-c1ccc(C#N)c2ccccc12)C(=O)O [Example 2C]
EC50: 1 to 50 nM

CC(=O)Nc1ccc(-c2cnccc2SC(C)(C)C(=O)O)cc1 [Example 2DDD]
EC50: 50 to 500 nM

CC(C)(Sc1ccncc1-c1cccc2ccccc12)C(=O)O [Example 2DD]
EC50: 50 to 500 nM

CC(C)(Sc1ccncc1-c1ccc(S(=O)(=O)NC2CC2)cc1)C(=O)O [Example 2D]
EC50: 50 to 500 nM

CC(C)(Sc1ccncc1-c1ccc(S(C)(=O)=O)cc1)C(=O)O [Example 2EEE]
EC50: 50 to 500 nM

CC(C)(Sc1ccncc1-c1ccc(Cl)c(C(F)(F)F)c1)C(=O)O [Example 2EE]
EC50: 50 to 500 nM

CC(C)(Sc1ccncc1-c1ccc(C#N)c(Cl)c1)C(=O)O [Example 2FFF]
EC50: 1 to 50 nM

CC(C)(Sc1ccncc1-c1cnc2ccccc2c1)C(=O)O [Example 2F]
EC50: 50 to 500 nM

CC(C)(Sc1ccncc1-c1ccc(S)cc1)C(=O)O [Example 2GGG]
EC50: 50 to 500 nM

CC(C)(Sc1ccncc1-c1ccc(F)cc1)C(=O)O [Example 2GG]
EC50: 50 to 500 nM

CC(C)(Sc1ccncc1-c1cccc2ncccc12)C(=O)O [Example 2H]
EC50: 50 to 500 nM

CC(C)(Sc1ccncc1-c1ccc(C#N)cc1F)C(=O)O [Example 2III]
EC50: 1 to 50 nM

CC(C)(Sc1ccncc1-c1ccnc2ccccc12)C(=O)O [Example 2II]
EC50: 50 to 500 nM

CC(C)(Sc1ccncc1-c1ccc(C(N)=O)cc1F)C(=O)O [Example 2JJJ]
EC50: 50 to 500 nM

CC(C)(Sc1ccncc1-c1ccc(CO)cc1)C(=O)O [Example 2JJ]
EC50: 1 to 50 nM

N#Cc1ccc(-c2cnccc2SC2(C(=O)O)CCC2)c2ccccc12 [Example 2J]
EC50: 1 to 50 nM

CC(C)(Sc1ccncc1-c1ccc(C(N)=O)cc1)C(=O)O [Example 2KK]
EC50: 50 to 500 nM

CCc1ccc(-c2cnccc2SC(C)(C)C(=O)O)cc1 [Example 2K]
EC50: 50 to 500 nM

COc1cncc(-c2cnccc2SC(C)(C)C(=O)O)c1 [Example 2MM]
EC50: 50 to 500 nM

Cc1cc(C#N)ccc1-c1cnccc1SC(C)(C)C(=O)O [Example 2NN]
EC50: 1 to 50 nM

CC(C)(Sc1ccncc1-c1ccc(C(F)(F)F)cc1)C(=O)O [Example 2N]
EC50: 50 to 500 nM

CC(C)(Sc1ccncc1-c1ccc(Cl)cc1)C(=O)O [Example 2O]
EC50: 1 to 50 nM

CC(C)(Sc1ccncc1-c1ccncc1)C(=O)O [Example 2PP]
EC50: 1 to 50 nM

CC(C)(Sc1ccncc1-c1ccc(Cl)cc1)C(=O)O [Example 2P]
EC50: 1 to 50 nM

CSc1ccc(-c2cnccc2SC(C)(C)C(=O)O)cc1 [Example 2Q]
EC50: 50 to 500 nM

CC(C)(Sc1ccncc1-c1ccc(Cl)c(Cl)c1)C(=O)O [Example 2S]
EC50: 50 to 500 nM

CC(C)(Sc1ccncc1-c1cccc(C#N)c1)C(=O)O [Example 2TT]
EC50: 50 to 500 nM

COc1ccc(-c2cnccc2SC(C)(C)C(=O)O)cn1 [Example 2T]
EC50: 50 to 500 nM

CC(C)(Sc1ccncc1-c1ccc(Br)cc1)C(=O)O [Example 2UU]
EC50: 1 to 50 nM

CC(C)(Sc1ccncc1-c1cncc2ccccc12)C(=O)O [Example 2U]
EC50: 50 to 500 nM

Cc1cc(C(N)=O)ccc1-c1cnccc1SC(C)(C)C(=O)O [Example 2WW]
EC50: 50 to 500 nM

CC(C)(Sc1ccncc1-c1ccc(F)c(F)c1)C(=O)O [Example 2W]
EC50: 50 to 500 nM

COc1ccc(-c2cnccc2SC(C)(C)C(=O)O)cc1 [Example 2XX]
EC50: 50 to 500 nM

CC(C)(Sc1ccncc1-c1ccc(F)c2ccccc12)C(=O)O [Example 2X]
EC50: 1 to 50 nM

COc1cc(-c2cnccc2SC(C)(C)C(=O)O)ccc1C#N [Example 2ZZ]
EC50: 50 to 500 nM

CC(C)(Sc1cnccc1-c1ccc(C#N)cc1)C(=O)O [Example 3A, 2-(4-(4-Cyanophenyl)pyridin-3-ylthio)-2-methylpropanoic acid]
EC50: 500 to 10000 nM

N#Cc1ccc(-c2cccnc2SC2(C(=O)O)CCC2)c2ccccc12 [Example 4C]
EC50: 50 to 500 nM

N#Cc1ccc(-c2nccnc2SCC(=O)O)c2ccccc12 [Example 5A, 2-(3-(4-Cyanonaphthalen-1-yl)pyrazin-2-ylthio)acetic acid]
EC50: 500 to 10000 nM

N#Cc1ccc(-c2cncnc2SCC(=O)O)c2ccccc12 [Example 6A, 2-(5-(4-Cyanonaphthalen-1-yl)pyrimidin-4-ylthio)acetic acid]
EC50: 500 to 10000 nM

N#Cc1ccc(-c2ncncc2SCC(=O)O)c2ccccc12 [Example 7A, 2-(4-(4-Cyanonaphthalen-1-yl)pyrimidin-5-ylthio)acetic acid]
EC50: 500 to 10000 nM
